The subject of series [1] is CYP2D6. Description: Enzyme inhibition assay, debrisoquine 4-hydroxylation (HLM, 8HUM microsomes). The note with it: for Debrisoquine (4-OH Debrisoquine) activity, percent of activity measured in the absence of inhibitor: HLM […], debrisoquine 67 μM in cocktail, furafylline 3, enoxacin 200, fluconazole 300, sulfaphenazole 3, quinidine 3, paroxetine 10, ketoconazole 1 μM. The protocol:
(§1) After a 5-minute preincubation at 37°C, reactions were initiated by addition of NADPH (1.3 mM). […] The samples were then centrifuged at 3000g for 55 minutes at 4°C, and an aliquot of the supernatant fraction was analyzed by LC-MS/MS. All experiments were performed at least in triplicate.

Series [2] has as its target CYP2D6 (Homo sapiens, UniProt P10635, R296C/S486T). The series is described as above. The conditions noted are these: 8HUM microsomes […]; debrisoquine 67 μM in cocktail; furafylline 3, enoxacin 200, fluconazole 300, sulfaphenazole 3, quinidine 3, paroxetine 10, ketoconazole 1 μM. The protocol:
as §1

For series [3], the target named is T1, CYP1A2 (Homo sapiens, UniProt P05177).
T1 sequence (P05177 1-516): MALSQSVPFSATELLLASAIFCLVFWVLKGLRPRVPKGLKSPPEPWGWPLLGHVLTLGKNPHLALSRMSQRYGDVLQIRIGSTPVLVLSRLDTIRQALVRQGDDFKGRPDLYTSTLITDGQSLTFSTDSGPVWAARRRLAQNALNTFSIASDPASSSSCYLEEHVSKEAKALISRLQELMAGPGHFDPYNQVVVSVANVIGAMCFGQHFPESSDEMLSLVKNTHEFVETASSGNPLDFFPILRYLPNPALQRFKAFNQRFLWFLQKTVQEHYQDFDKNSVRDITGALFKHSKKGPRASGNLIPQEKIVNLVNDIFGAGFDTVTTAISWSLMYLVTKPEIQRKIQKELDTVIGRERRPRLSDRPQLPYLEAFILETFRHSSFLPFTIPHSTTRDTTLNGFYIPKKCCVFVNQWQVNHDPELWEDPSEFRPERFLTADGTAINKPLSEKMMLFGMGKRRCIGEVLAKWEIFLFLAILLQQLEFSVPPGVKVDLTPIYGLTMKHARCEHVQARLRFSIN
The series is described as follows: Enzyme inhibition assay, caffeine to paraxanthine (HLM, 8HUM microsomes). The conditions noted are these: caffeine 220 μM in cocktail, furafylline 3, enoxacin 200, fluconazole 300, sulfaphenazole 3, quinidine 3, paroxetine 10, ketoconazole 1 μM. The protocol:
as §1

Series [4] concerns the target T2, CYP2C9 (Homo sapiens, UniProt P11712). Description: Enzyme inhibition assay, tolbutamide hydroxylation (HLM, 8HUM microsomes). The conditions noted are these: tolbutamide 2 μM in cocktail, furafylline 3, enoxacin 200, fluconazole 300, sulfaphenazole 3, quinidine 3, paroxetine 10, ketoconazole 1 μM. The procedure: as §1
Series [5] addresses T1, CYP1A2. The series is described as follows: in vitro. The conditions noted are these: 8HUM, mouse, microsomes, pH 7.4, Inhibition of 7-methoxyresorufin metabolism.
Description: (§2) A mixture of either 7-methoxyresorufin or 7-ethoxyresorufin (1 μM) and 8HUM liver microsomes or HLM (∼0.38 mg protein/ml) in 100 mM potassium phosphate buffer (pH 7.4) supplemented with MgCl2 (3.3 mM) was incubated at 37°C for 5 minutes before the addition of NADPH (final concentration 1.2 mM). […] Slopes of the linear part of the kinetic curves were calculated using Ascent Software Version 2.4.1 (Labsystems). For each reaction two controls, with and without reaction product resorufin (40 pmol) were run. Fluorescence was measured from both control wells and the difference in fluorescence intensity between wells with and without resorufin was used for the conversion of the relative fluorescence units to the picomoles of the reaction product.
For series [6], the target named is T2, CYP2C9. The note with it: sulfaphenazole 50 μM.
In series [7] the test system is CYP3A4. Description: CYP3A4 induction by PXR activators in humanized CAR/PXR/CYP3A4 mice. The note with it: CAR/PXR/CYP3A4 model (Supplemental Fig. 4). From the text:
We therefore sought to identify a specific, clinically relevant PXR agonist that was nontoxic. […] Subsequent studies were therefore undertaken using SJW to induce CYP3A4 expression in 8HUM mice.

The nature of series [8]: Osimertinib pharmacokinetics in 8HUM mice: effect of rifampicin and β-naphthoflavone. The conditions noted are these: female, mouse, in vivo, po, 25 mg/kg; for AUC / Cmax: female 8HUM mice, osimertinib 25 mg/kg oral. From the text:
Humans and rodents metabolize drugs down different pathways and also generate different metabolites both in their site of oxidation as well as in different metabolite ratios when multiple sites of oxidation are involved. […] Mice were pretreated with either RIF or a combination of RIF and β-naphthoflavone (BNF), an aryl hydrocarbon receptor agonist that induces P450s in the CYP1A gene family.
Fig. 4. […] Osimertinib structure and sites of metabolism in humans (C) are also shown. […] Panel B prints no name for the measured substance; it is presumably Osimertinib, the name printed in panel A.

On the set-up of series [9]: method as in Cross et al., 2014. The note with it: WT mice; ref Cross et al., 2014; cited from earlier work.
For series [10], the target named is T1, CYP1A2.
Description: as §2
Series [11] addresses T3, CYP3A4 (Homo sapiens, UniProt P08684).
T3 construct: pooled rifampicin-treated male and female 8HUM mice (8HUM) or pooled human liver microsomes (HLM); host or cells: liver microsomes: pooled human liver; liver of 8HUM mice carrying human CYP3A4/CYP3A7 under the human promoter
Description: 7-Benzyloxyquinoline O-debenzylation in liver microsomes of rifampicin- or vehicle-treated 8HUM mice. The format is in vitro ADME. The note with it: liver microsomes of rifampicin-treated 8HUM mice. On the technique in general: Liver microsomes are vesicles of endoplasmic reticulum, rich in cytochrome P450 enzymes.

Series [12] addresses T3, CYP3A4. The series is described as follows: Kinetic parameters of 1-hydroxyl midazolam formation in liver microsomes (HLM, 8HUM). The conditions noted are these: pH 7.4. The format is in vitro ADME. The procedure: All samples were handled in amber tubes under conditions of subdued light for the duration of the procedure. […] The samples were then centrifuged at 3000g for 55 minutes at 4°C and an aliquot of the supernatant fraction was analyzed by LC-MS/MS.
Calibration curves were constructed with authentic metabolite standards and linear regression analysis used to calculate the amount of metabolite formed in each test sample. […] The 7-ethoxyresorufin O-deethylation assay was carried out as detailed below.

A short description of series [13]: Pharmacokinetics of cassette-dosed probe drugs in 8HUM mice with or without rifampicin pretreatment. The note with it: female, mouse, in vivo, po, AUCall, female 8HUM mice, oral cassette: caffeine, debrisoquine, tolbutamide 5 mg/kg, midazolam 3 mg/kg. The procedure: Female 8HUM mice received either two daily intraperitoneal doses of RIF (n = 4; 20–26 weeks) or vehicle (corn oil; n = 4; 25–29 weeks). […] Blood samples (10 μl) were collected at the indicated time points after dosing, mixed immediately with 10 μl of heparin (15 IU/ml), snap frozen in liquid nitrogen, and stored at approximately −70°C prior to analysis (see Supplemental Data for details).
Pharmacokinetic parameters were calculated by Phoenix WinNonlin version 8.0.0.3176 (Certara, Princeton, NJ).
Fig. 2. […] Data shown are mean ± S.D.

[14] abbreviates: RIF + BNF 80 mg/kg i.p. daily 3 days.
The mark [15] stands for this setting: RIF in diet (equivalent 10 mg/kg) 3 days.

The text below walks through data of PMC6505380, “An Extensively Humanized Mouse Model to Predict Pathways of Drug Disposition and Drug/Drug Interactions, and to Facilitate Design of Clinical Trials” (Drug Metabolism and Disposition, 2019).

Like-named read-outs stand apart in the source and are kept apart here.

T2 sequence (P11712 whole entry): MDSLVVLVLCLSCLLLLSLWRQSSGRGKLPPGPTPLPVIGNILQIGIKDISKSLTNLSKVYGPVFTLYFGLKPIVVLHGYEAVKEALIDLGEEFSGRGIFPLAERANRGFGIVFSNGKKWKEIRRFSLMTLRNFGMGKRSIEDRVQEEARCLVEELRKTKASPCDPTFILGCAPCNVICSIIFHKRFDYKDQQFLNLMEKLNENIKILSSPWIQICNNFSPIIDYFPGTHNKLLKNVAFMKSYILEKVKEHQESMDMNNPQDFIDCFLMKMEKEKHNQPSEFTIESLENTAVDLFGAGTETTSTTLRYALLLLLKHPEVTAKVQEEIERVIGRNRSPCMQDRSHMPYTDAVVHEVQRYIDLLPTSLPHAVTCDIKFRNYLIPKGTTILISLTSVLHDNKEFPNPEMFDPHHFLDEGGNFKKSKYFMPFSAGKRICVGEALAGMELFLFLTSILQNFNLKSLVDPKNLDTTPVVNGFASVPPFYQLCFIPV
T3 sequence (P08684 whole entry): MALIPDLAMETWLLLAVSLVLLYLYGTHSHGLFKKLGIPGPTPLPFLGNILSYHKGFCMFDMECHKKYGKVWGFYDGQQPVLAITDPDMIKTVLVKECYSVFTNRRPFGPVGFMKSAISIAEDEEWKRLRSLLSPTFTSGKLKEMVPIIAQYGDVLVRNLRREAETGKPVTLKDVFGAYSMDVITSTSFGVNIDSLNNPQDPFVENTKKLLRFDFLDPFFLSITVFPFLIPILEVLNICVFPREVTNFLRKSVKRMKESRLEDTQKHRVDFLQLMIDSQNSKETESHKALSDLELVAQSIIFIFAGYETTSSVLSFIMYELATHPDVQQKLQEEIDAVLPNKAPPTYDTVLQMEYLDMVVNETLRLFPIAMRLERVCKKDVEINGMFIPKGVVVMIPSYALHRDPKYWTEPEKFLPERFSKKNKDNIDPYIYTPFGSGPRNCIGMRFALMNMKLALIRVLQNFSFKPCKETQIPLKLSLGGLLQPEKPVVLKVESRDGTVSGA

In the case of `Fc1ccc([C@@H]2CCNC[C@H]2COc2ccc3c(c2)OCO3)cc1` [Paroxetine, paroxetine], the “Debrisoquine (4-OH Debrisoquine) activity, percent of activity measured in the absence of inhibitor” value in the series on CYP2D6 [1] was 52 ± 11%. The “Species difference in extent of inhibition of debrisoquine 4-hydroxylation (HLM vs 8HUM microsomes)” value in the series with CYP2D6 [1] (HLM vs microsomes from 8HUM mice) is 4 fold.
On to `C=C[C@H]1C[N@@]2CC[C@H]1C[C@@H]2[C@@H](O)c1ccnc2ccc(OC)cc12` [Quinidine, quinidine], for which the “Debrisoquine (4-OH Debrisoquine) activity, percent of activity measured in the absence of inhibitor” value at CYP2D6 [2] was found to be 43 ± 5%.
Take `OC(Cn1cncn1)(Cn1cncn1)c1ccc(F)cc1F` [Fluconazole, fluconazole]: the “Caffeine (Paraxanthine) activity, percent of activity measured in the absence of inhibitor” value on CYP1A2 [3] (8HUM microsomes […]) stood at 100 ± 31%; on CYP1A2 [3] (HLM […]), 114 ± 37%. The “Debrisoquine (4-OH Debrisoquine) activity, percent of activity measured in the absence of inhibitor” value at CYP2D6 [2] is 88 ± 19%; in the series on CYP2D6 [1] it was 96 ± 9%. In addition, the “Tolbutamide (OH-Tolbutamide) activity, percent of activity measured in the absence of inhibitor” value was 41 ± 33% at CYP2C9 [4] (8HUM microsomes […]) and 35 ± 21% on CYP2C9 [4] (HLM […]).
A word on the inhibition: it is the drop in the measured response relative to a control, in per cent. With `O=c1cc(-c2ccccc2)oc2c1ccc1ccccc12` [α-naphthoflavone], the inhibition at 3.33 μM against CYP1A2 [5] was determined as 75%.
Consider `Nc1ccc(S(=O)(=O)Nc2ccnn2-c2ccccc2)cc1` [Sulfaphenazole, sulfaphenazole], for which the results for the “Tolbutamide (OH-Tolbutamide) activity, percent of activity measured in the absence of inhibitor” value on CYP2C9 [4] (8HUM microsomes […]) and on CYP2C9 [4] (HLM […]) were 28 ± 15% and 14 ± 4%, respectively. In addition, the results for the “Remaining tolbutamide 4-hydroxylation activity in the presence of inhibitor” value at CYP2C9 [6] (liver microsomes of control 8HUM mice) and at CYP2C9 [6] (liver microsomes of rifampicin-treated 8HUM mice) were 2.01 ± 0.33 pmol/min per milligram and 11.43 ± 9.38 pmol/min per milligram, respectively.
Take `CCC1(c2ccccc2)C(=O)NC(=O)NC1=O` [PB, phenobarbital]: the “Induction of CYP3A4” value in the series with CYP3A4 [7] is recorded as “effective inducers of CYP3A4”.
Usually half-life stands for the time in which the quantity being followed falls by half. Consider `C=CC(=O)Nc1cc(Nc2nccc(-c3cn(C)c4ccccc34)n2)c(OC)cc1N(C)CCN(C)C` [osimertinib], for which the half-life in [8] (8HUM mice, osimertinib 25 mg/kg by oral gavage) is 20 h; in series [9], 3.5 h. Moreover, the AUC in series [8] (Control (normal RM1 diet)) was found to be 3750 ± 614 ng·h/mL; in [8] (setting [14]), 661 ± 132 ng·h/mL; in series [8] (setting [15]) it was 2140 ± 631 ng·h/mL. Further, the Cmax in [8] (Control (normal RM1 diet)) is 199 ± 29 ng/mL; in [8] (setting [14]), 71 ± 7 ng/mL; in [8] (setting [15]), 139 ± 26 ng/mL.
Turning to `Cc1nc2c([nH]1)c(=O)n(C)c(=O)n2Cc1ccco1` [Furafylline, furafylline], the entries for the “Debrisoquine (4-OH Debrisoquine) activity, percent of activity measured in the absence of inhibitor” value on CYP2D6 [2] and in the series with CYP2D6 [1] were 91 ± 13% and 65 ± 9%, respectively. For the same molecule, the “Tolbutamide (OH-Tolbutamide) activity, percent of activity measured in the absence of inhibitor” value on CYP2C9 [4] (8HUM microsomes […]) is 63 ± 19%; on CYP2C9 [4] (HLM […]), 103 ± 25%.
As for `COc1ccc2nc3ccc(=O)cc-3oc2c1` [7-methoxyresorufin], the “Rate of 7-methoxyresorufin metabolism” value at CYP1A2 [10] is given as 42.84 ± 9.93 pmol/min per milligram.
Regarding `c1ccc(COc2ccc3cccnc3c2)cc1` [7-BQ, 7-benzyloxyquinoline], the “Rate of 7-BQ hydroxylation (metabolism)” value on CYP3A4 [11] turned out to be 4218 ± 550 pmol/min per milligram.
Consider `O=C1Nc2ccc(Cl)cc2[C@@](C#CC2CC2)(C(F)(F)F)O1` [EFV, efavirenz], for which the “Induction of CYP3A4” value in the series with CYP3A4 [7] was “effective inducers of CYP3A4”.
As usually defined, the Km is the substrate concentration at which the rate is half of its maximum. With `Cc1ncc2n1-c1ccc(Cl)cc1C(c1ccccc1F)=NC2` [Midazolam, midazolam], the Michaelis constant (Km) at 2 min was 1.2 ± 0.3 µM on CYP3A4 [12] (both sexes, 8HUM, mouse, liver microsomes of pooled rifampicin-treated 8HUM mice) and 0.73 ± 0.2 µM on CYP3A4 [12] (human, pooled human liver microsomes). For the same molecule, the results for the AUC in series [13] (rifampicin 10 mg/kg i.p. daily for 2 days pretreatment) and in [13] (vehicle (corn oil) i.p. pretreatment) were 68.8 ± 21.1 ng·h/mL and 860 ± 138 ng·h/mL, respectively.
